Measurements published in patent US20170190705A1, “Compositions and Methods for Inhibiting BMP” (THE BRIGHAM AND WOMAN'S HOSPITAL, INC., priority 2014, published 2017).
Read-outs that look alike come from different tables or passages of the source.

Legend:
[1] = biological target: T1, ALK2 (Homo sapiens, UniProt Q04771, Q207D); assay: Thermal shift kinase assay ALK2; format: binding; settings: for ΔTmDiff.: ALK2 minus ALK5; for ΔTm at 10 µM: 10 μM inhibitor
T1 construct: His tag (TEV-cleavable) (N, cleaved yes); made in house; host or cells: Sf9 insect cells (baculovirus)
T1 sequence (Q04771 201-499 Q207D): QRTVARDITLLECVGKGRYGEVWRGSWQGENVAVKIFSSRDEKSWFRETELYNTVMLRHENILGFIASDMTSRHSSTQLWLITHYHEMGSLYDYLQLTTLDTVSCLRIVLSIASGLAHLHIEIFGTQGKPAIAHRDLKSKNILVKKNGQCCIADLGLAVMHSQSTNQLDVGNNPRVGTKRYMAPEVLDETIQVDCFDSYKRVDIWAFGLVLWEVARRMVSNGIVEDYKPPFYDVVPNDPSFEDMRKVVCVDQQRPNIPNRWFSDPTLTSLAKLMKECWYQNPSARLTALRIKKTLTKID
Description: (§1) Thermal melting experiments were performed using a Real Time PCR machine Mx3005p (Stratagene) with a protein concentration of 1-2 μM and 10 μM inhibitor as described by Niesen et al., Nat Protoc 2007, 2, 2212-21. Recombinant human kinases for DSF screening were prepared by SGC using the published methods of Sanvitale et al., PLoS One 2013, 8, e62721. The potency and selectivity of certain compounds of the invention based on thermal shift kinase and ligand induced transcriptional activity assays are shown in Table 2.

[2] = test system: BMP6; assay: Ligand induced transcriptional activity assay BMP6 (BRE-Luc); format: cell-based; settings: for Fold Select.: TGFβ1 vs BMP6; for IC50: cell-based signaling inhibition, read-out: BMP6 IC50
[3] = test system: TGFβ1; assay: Ligand induced transcriptional activity assay TGFβ1 (CAGA-Luc); settings: Homo sapiens; cell-based signaling inhibition
[4] = test system: HePG2 hepatocarcinoma cells; format: cell-based; settings: human
Description: The cells were incubated for 2 h (37° C. and 5% CO2) and allowed to settle and attach. Compounds of interest or DMSO were diluted in DMEM and added at final compound concentrations of 1 μM, 10 μM, and 100 μM. Cells were incubated for 4 hours and 24 hours after which the media was discarded. Cells were lysed by adding 30 μL of passive lysis buffer (Promega) and shaken at RT for 15 min. Cell viability was determined by quantifying the ATP present in each well by adding 10 μL of CellTiter-Glo (Promega) per well and measuring the light output Spectramax L luminometer (Molecular Devices) with an integration time of one second per well. Data was normalized to 100% viability for cells receiving only DMSO without any concurrent compound.

[5] = biological target: T2, ALK5 (Homo sapiens, UniProt P36897); assay: Thermal shift kinase assay ALK5; format: binding
T2 construct: made in house
T2 sequence (P36897 34-503): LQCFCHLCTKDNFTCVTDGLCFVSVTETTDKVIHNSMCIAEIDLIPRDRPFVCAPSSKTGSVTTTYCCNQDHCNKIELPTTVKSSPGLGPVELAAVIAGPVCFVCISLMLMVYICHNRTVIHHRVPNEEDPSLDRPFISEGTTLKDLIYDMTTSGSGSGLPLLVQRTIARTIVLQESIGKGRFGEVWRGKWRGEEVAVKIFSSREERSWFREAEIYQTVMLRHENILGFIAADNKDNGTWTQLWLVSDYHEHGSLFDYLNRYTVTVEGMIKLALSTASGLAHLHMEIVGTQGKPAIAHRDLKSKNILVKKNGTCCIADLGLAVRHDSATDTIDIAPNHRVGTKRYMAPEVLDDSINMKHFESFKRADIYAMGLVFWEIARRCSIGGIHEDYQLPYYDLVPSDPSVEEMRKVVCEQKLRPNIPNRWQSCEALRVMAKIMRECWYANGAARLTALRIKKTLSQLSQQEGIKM
Description: as §1

[6] = biological target: T3, caALK1 (Homo sapiens, UniProt P37023, Q201D); assay: Luciferase reporter assay constitutively active ALK1; settings: read-out: Cell Based Assay caALK1 IC50
T3 construct: expressed in transfected cells; host or cells: C2C12 BRE-Luc cells infected with adenovirus (MOI 100)
Description: (§2) The cells were incubated for 1 h (37° C. and 10% CO2) and allowed to settle and attach. Compounds of interest or DMSO were diluted in DMEM and added at final compound concentrations of 1 nM to 10 μM. Cells were then incubated for 30 min. Adenovirus expressing constitutively active BMP and TGF-β type I receptors (Ad.caALK1-5), generously provided by Dr. Akiko Hata (University of to California at San Francisco), were added to achieve a multiplicity of infection (MOI) of 100. Plates were incubated overnight at 37° C. Cell viability was assayed with an MIT (3-(4,5-dimethylthiazol-2-yl)-2,5-diphenyl tetrazolium bromide) colorimetric assay (Promega) per the manufacturer's instructions. Media was discarded, and firefly luciferase activity was measured (Promega) according to manufacturer's protocol. Light output was measured using a Spectramax L luminometer (Molecular Devices) with an integration time of one second per well. Data was normalized to 100% of incremental BRE-Luc activity due to adenoviruses specifying caALK1, 2, or 3, or the incremental CAGA-Luc activity due to adenoviruses specifying caALK4 or 5.

[7] = biological target: T4, caALK3 (Homo sapiens, UniProt P36894, Q233D); assay: Luciferase reporter assay constitutively active ALK3; settings: read-out: Cell Based Assay caALK3 IC50
T4 construct: expressed in transfected cells; host or cells: C2C12 BRE-Luc cells infected with adenovirus (MOI 100)
Excerpt: as §2, with “C2Cl2 […] cells stably transfected with BMP responsive element from the Id promoter fused to luciferase reporter gene (BRE-Luc) were generously provided by Dr. Peter ten Dijke (Leiden University Medical Center, NL) following the methods described by Zilberberg et al., BMC cell biology 2007, 8, 41-50. Human embryonic kidney 293T cells stably transfected with the TGF-β responsive element from the PAI-1 promoter fused to luciferase reporter gene (CAGA-Luc) were generously provided by Dr. Howard Weiner (Brigham and Women's Hospital, Boston, Mass.) following the methods described by Oida et al., PloS one 2011, 6, e18365. C2Cl2 Bre-Luc and 293T CAGA-Luc cells were seeded in DMEM supplemented with 2% FBS at 20,000 cells per well in tissue culture treated 96-well plates (Costar® 3610; Corning). The” for “The”

[8] = biological target: T5, caALK4 (Homo sapiens, UniProt P36896); assay: Luciferase reporter assay constitutively active ALK4; settings: read-out: Cell Based Assay caALK4 IC50
T5 sequence (P36896 1-505 T206D): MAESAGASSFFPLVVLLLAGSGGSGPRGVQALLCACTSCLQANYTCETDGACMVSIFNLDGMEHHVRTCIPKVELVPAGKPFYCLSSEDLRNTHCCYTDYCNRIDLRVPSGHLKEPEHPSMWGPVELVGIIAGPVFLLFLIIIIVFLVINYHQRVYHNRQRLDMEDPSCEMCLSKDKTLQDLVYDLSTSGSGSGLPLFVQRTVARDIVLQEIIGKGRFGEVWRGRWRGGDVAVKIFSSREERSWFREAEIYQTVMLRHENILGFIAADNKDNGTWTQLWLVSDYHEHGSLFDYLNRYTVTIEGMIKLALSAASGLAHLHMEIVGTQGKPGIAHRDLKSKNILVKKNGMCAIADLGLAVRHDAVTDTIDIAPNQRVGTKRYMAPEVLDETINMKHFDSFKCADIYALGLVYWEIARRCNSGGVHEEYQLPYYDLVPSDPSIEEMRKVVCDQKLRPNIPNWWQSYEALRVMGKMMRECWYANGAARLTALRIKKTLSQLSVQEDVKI
Excerpt: as §2, with “C2Cl2 […] cells stably transfected with BMP responsive element from the Id promoter fused to luciferase reporter gene (BRE-Luc) were generously provided by Dr. Peter ten Dijke (Leiden University Medical Center, NL) following the methods described by Zilberberg et al., BMC cell biology 2007, 8, 41-50. Human embryonic kidney 293T cells stably transfected with the TGF-β responsive element from the PAI-1 promoter fused to luciferase reporter gene (CAGA-Luc) were generously provided by Dr. Howard Weiner (Brigham and Women's Hospital, Boston, Mass.) following the methods described by Oida et al., PloS one 2011, 6, e18365. C2Cl2 Bre-Luc and 293T CAGA-Luc cells were seeded in DMEM supplemented with 2% FBS at 20,000 cells per well in tissue culture treated 96-well plates (Costar® 3610; Corning). The” for “The”

T3 sequence (P37023 22-503 Q201D): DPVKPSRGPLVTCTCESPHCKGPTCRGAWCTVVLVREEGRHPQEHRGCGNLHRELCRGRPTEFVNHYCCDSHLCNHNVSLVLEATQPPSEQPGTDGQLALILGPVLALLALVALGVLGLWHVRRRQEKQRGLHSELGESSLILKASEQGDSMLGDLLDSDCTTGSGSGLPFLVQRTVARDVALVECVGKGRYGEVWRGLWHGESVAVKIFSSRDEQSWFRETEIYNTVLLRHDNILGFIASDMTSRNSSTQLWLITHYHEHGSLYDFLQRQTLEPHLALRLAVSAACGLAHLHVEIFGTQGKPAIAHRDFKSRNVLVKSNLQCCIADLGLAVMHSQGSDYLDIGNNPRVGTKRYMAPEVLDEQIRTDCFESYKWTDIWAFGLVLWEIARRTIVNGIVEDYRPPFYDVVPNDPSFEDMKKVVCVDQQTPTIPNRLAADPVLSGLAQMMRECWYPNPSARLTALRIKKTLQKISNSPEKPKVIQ
T4 sequence (P36894 24-532 Q233D): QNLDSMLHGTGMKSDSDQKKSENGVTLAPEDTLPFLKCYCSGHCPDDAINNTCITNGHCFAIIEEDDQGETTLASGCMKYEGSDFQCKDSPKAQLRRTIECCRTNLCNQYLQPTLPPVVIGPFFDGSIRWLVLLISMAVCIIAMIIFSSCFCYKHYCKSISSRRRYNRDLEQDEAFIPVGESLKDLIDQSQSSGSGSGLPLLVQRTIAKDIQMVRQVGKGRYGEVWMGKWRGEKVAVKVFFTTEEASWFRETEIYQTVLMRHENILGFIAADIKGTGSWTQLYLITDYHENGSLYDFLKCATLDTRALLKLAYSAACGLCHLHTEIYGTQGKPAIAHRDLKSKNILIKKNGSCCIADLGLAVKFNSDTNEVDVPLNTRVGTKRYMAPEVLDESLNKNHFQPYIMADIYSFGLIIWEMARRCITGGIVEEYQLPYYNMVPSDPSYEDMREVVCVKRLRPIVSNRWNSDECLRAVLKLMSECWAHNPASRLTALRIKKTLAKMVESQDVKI

## COc1cc(-c2cc(-c3ccc(O)cc3)cnc2N)cc(OC)c1OC [Compound 11, 4-(6-Amino-5-(3,4,5-trimethoxyphenyl)pyridin-3-yl)phenol]
[1]
  ΔTmDiff.: 1.5
[2]
  Fold Select.: 28
  IC50: 20 ± 1 nM
[3]
  IC50: 580 ± 50 nM
[4]; 4 h, 1 μM
  Cell viability: 95%
[4]; 4 h, 10 μM
  Cell viability: 98%
[4]; 4 h, 100 μM
  Cell viability: 91%
[4]; 24 h, 1 μM
  Cell viability: 99%
[4]; 24 h, 10 μM
  Cell viability: 89%
[4]; 24 h, 100 μM
  Cell viability: 82%

## COc1cc(-c2cnc(N)c(-c3cc(OC)c(OC)c(OC)c3)c2)ccc1O [Compound 12, 4-(6-amino-5-(3,4,5-trimethoxyphenyl)pyridin-3-yl)-2-methoxyphenol]
[1]
  ΔTmDiff.: 1.7
[2]
  IC50: 90 ± 30 nM
[3]
  IC50: 2300 nM
[4]; 4 h, 1 μM
  Cell viability: 96%
[4]; 4 h, 10 μM
  Cell viability: 103%
[4]; 4 h, 100 μM
  Cell viability: 93%
[4]; 24 h, 1 μM
  Cell viability: 97%
[4]; 24 h, 10 μM
  Cell viability: 88%
[4]; 24 h, 100 μM
  Cell viability: 89%

## COc1cc(-c2cc(-c3ccc(N4CCNCC4)cc3)cnc2N(C)C)cc(OC)c1OC [Compound 25, N,N-dimethyl-5-(4-(piperazin-1-yl)phenyl)-3-(3,4,5-trimethoxyphenyl)pyridin-2-amine]
[1]
  ΔTmDiff.: 0.1
[2]
  IC50: 1700 nM
[3]
  IC50: 15000 nM
[4]; 4 h, 1 μM
  Cell viability: 92%
[4]; 4 h, 10 μM
  Cell viability: 103%
[4]; 4 h, 100 μM
  Cell viability: 95%
[4]; 24 h, 1 μM
  Cell viability: 101%
[4]; 24 h, 10 μM
  Cell viability: 91%

## COc1cc(-c2cncc(-c3ccc(N4CCNCC4)cc3)c2)cc(OC)c1OC [Compound 26, 1-(4-(5-(3,4,5-trimethoxyphenyl)pyridin-3-yl)phenyl)piperazine]
[1]
  ΔTm at 10 µM: 14 °C
  ΔTmDiff.: 3.7
[1]; Table 6
  ΔT ALK2: 14.1 °C
[1]; Table 6, ALK2 minus ALK5
  ΔT Diff.: 3.7 °C
[5]; 10 μM inhibitor
  ΔTm at 10 µM: 10.4 °C
[5]; Table 6
  ΔT ALK5: 10.4 °C
[4]; 4 h, 1 μM
  Cell viability: 96%
[4]; 4 h, 10 μM
  Cell viability: 103%
[4]; 24 h, 1 μM
  Cell viability: 103%
[4]; 24 h, 10 μM
  Cell viability: 80%
[6]
  IC50: 202 nM
[7]
  IC50: 105 nM
[8]
  IC50: 427 nM

## COc1cc(-c2cc(-c3ccc(N4CCNCC4)cc3)cnc2Cl)cc(OC)c1OC [Compound 27, 1-(4-(6-chloro-5-(3,4,5-trimethoxyphenyl)pyridin-3-yl)phenyl)piperazine]
[1]
  ΔTmDiff.: 3.8
[2]
  Fold Select.: 244
  IC50: 170 ± 60 nM
[3]
  IC50: 90000 nM
[4]; 4 h, 1 μM
  Cell viability: 95%
[4]; 4 h, 10 μM
  Cell viability: 103%
[4]; 4 h, 100 μM
  Cell viability: 97%
[4]; 24 h, 1 μM
  Cell viability: 101%
[4]; 24 h, 10 μM
  Cell viability: 98%

## COc1cc(-c2cc(-c3ccc(N4CCNCC4)cc3)cnc2OC)cc(OC)c1OC [Compound 28, 1-(4-(6-methoxy-5-(3,4,5-trimethoxyphenyl)pyridin-3-yl)phenyl)piperazine]
[1]
  ΔTmDiff.: 0.1
[2]
  IC50: 1700 nM
[3]
  IC50: 82000 nM
[4]; 4 h, 1 μM
  Cell viability: 92%
[4]; 4 h, 10 μM
  Cell viability: 102%
[4]; 24 h, 1 μM
  Cell viability: 99%
[4]; 24 h, 10 μM
  Cell viability: 98%

## COc1cc(-c2cc(-c3cccc(O)c3)cnc2N)cc(OC)c1OC [Compound K02288, 3-(6-Amino-5-(3,4,5-trimethoxyphenyl)pyridin-3-yl)phenol, reference compound]
[1]
  ΔTm at 10 µM: 13.2 °C
  ΔTmDiff.: 2.0
[2]
  IC50: 420 ± 170 nM
[4]; 4 h, 1 μM
  Cell viability: 103%
[4]; 4 h, 10 μM
  Cell viability: 107%
[4]; 4 h, 100 μM
  Cell viability: 115%
[4]; 24 h, 1 μM
  Cell viability: 106%
[4]; 24 h, 10 μM
  Cell viability: 110%
